In patent US8420777B2, “Compounds that inhibit Hsp90 protein-protein interactions with IAP proteins” (University of Massachusetts, priority 2004, dated 2013):
Square brackets hold non-standard residues; d marks the D form. Ends that are not written are not given here.

Key:
PC3 tumors = test: Peptide accumulation within the tumor mass, fluorescence microscopy; assay type: in vivo, SCID/beige mice; conditions: intraperitoneally, one hour after administration
Procedure: To determine whether the survivin peptidomimetic accumulates intracellularly in vivo, animals carrying flank PC3 tumors were injected intraperitoneally with saline, or the cell-permeable retro-inverso K79-L87 survivin peptide P3. One hour after administration, the animals were sacrificed, and the tumors were carefully excised and analyzed for peptide accumulation within the tumor mass by fluorescence microscopy.

[1] = test system: normal lung fibroblast LU18 cells; test: Trypan blue exclusion in normal cells; assay type: cell-based; conditions: 150 μM, 24 hours
Hsp70 = test: Affinity chromatography of Raji cell extracts on Survivin peptide column; assay type: binding; conditions: eluate by Western blotting
Text: (§1) A Survivin Ile^74-Leu^87 peptide (SEQ ID NO:4) containing a binding site for Hsp90 was immobilized onto a Sulfolink™ Coupling Gel (Pierce, Rockport, Ill.), and used to fractionate Raji cell extracts. Proteins were identified in the flow trough (FT) or eluate (E) by Western blotting with the indicated antibodies. Hsp90 and Hsp70 clearly bound the Survivin peptide including residues Ile^74-Leu^87. The anti-Hsp70 antibodies were obtained from Abcam, Cambridge, Mass. (cat. No. ab6535).

Hsp 27 = target: T1, Hsp 27 (Homo sapiens, UniProt P04792); test: as above; assay type: binding
T1 construct: used to fractionate Raji cell extracts; endogenous in cells; host or cells: Raji B lymphoma cells
Text: as §1

Hsp90 = test: as above; assay type: binding; conditions: eluate by Western blotting
Text: as §1

[2] = test system: HeLa, MDA-MB231, MCF-7, PANC-1 tumor cell lines; test: MTT cell viability with retro-inverso peptides; assay type: cell-based; conditions: increasing concentrations, 24 hours
Procedure: For determination of apoptosis by hypodiploid DNA content, various tumor cell lines were incubated with increasing concentrations of the cell permeable control scrambled (SEQ ID NO:25) or Survivin peptide (SEQ ID NO:19), harvested after 24 hours (floaters plus attached cells) fixed in 70% ethanol, and stained with 10 μg/ml propidium iodide plus 100 μg/ml RNAse A and 0.05% Triton™ X-100 in PBS, pH 7.4. Cultures were analyzed for DNA content by flow cytometry. For colorimetric quantification of cell viability, an MTT assay was used. […] Decrease in cell viability was analyzed for loss of colorimetric absorption at OD405.
To increase the stability in vivo of the cell permeable Survivin K79-L87 sequence, we synthesized peptidomimetic variants in which the cell penetrating Antennapedia sequence and the Survivin active sequence K79-L87 were synthesized using D-amino acid ([…]) and in the reverse order (inverso sequence). […] To test the ability of the retro-inverso cell permeable sequences to induce apoptosis in cancer cells, a panel of tumor cell lines were analyzed by the cell viability MTT assay after incubation with the indicated increasing concentrations of the P3 (Survivin) or P4 (control) retro-inverso cell permeable peptides.

[3] = test system: HCT116, HeLa, MCF-7, PANC-1, PC3 tumor cells; test: Trypan blue exclusion in tumor cell lines; assay type: cell-based; conditions: 150 μM, 24 hours
Procedure: To study the specificity of the retro-inverso P3 and P4 sequences described in Example 17, we incubated a variety of tumor cell lines with the cell permeable retro-inverso P3 and P4 peptides (150 μM), and stained the cultures after 24 hours by trypan blue (Sigma) exclusion. Cells that fail to exclude the blue dye were cells that lost cell viability and plasma membrane integrity.

T1 sequence (P04792 whole entry): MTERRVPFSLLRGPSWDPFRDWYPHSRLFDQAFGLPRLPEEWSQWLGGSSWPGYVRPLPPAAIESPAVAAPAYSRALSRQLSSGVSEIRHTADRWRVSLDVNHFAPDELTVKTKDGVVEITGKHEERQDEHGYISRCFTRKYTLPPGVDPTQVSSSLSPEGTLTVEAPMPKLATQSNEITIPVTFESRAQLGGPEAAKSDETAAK

In the case of `CSCC[C@@H](NC(=O)[C@@H](CCCCN)NC(=O)[C@@H](Cc1c[nH]c2ccccc12)NC(=O)[C@@H](CCCCN)NC(=O)[C@@H](CCCCN)NC(=O)CCCCCNC(=O)CCCC[C@@H]1SC[C@@H]2NC(=O)N[C@@H]21)C(=O)N[C@H](CCCNC(=N)N)C(=O)N[C@H](CCCNC(=N)N)C(=O)N[C@H](CC(N)=O)C(=O)N[C@H](CCC(N)=O)C(=O)N[C@H](Cc1ccccc1)C(=O)N[C@H](Cc1c[nH]c2ccccc12)C(=O)N[C@@H](C(=O)N[C@H](CCCCN)C(=O)N[C@@H](C(=O)N[C@H](CCC(N)=O)C(=O)N[C@H](CCCNC(=N)N)C(=O)N[C@H](CC(C)C)C(=O)N[C@H](Cc1ccccc1)C(=O)N[C@H](C)C(=O)N[C@H](CS)C(=O)NCC(=O)N[C@H](CO)C(=O)N[C@H](CO)C(=O)N[C@H](Cc1c[nH]cn1)C(=O)N[C@H](CCCCN)C(N)=O)C(C)C)C(C)C` [P3], the “intracellular accumulation in tumor cells” value (PC3 tumors) is reported as “showed intracellular fluorescence” and the “viability of normal cells (trypan blue exclusion)” value [1] is reported as “neither the Survivin P3 nor the control P4 peptide resulted in decreased viability”.

For IDDHKKHSSGCAFL [SEQ ID NO:4], the “Hsp70 binding to peptide column” value (Hsp70) was “clearly bound”, the “Hsp 27 binding to peptide column” value (Hsp 27) was “did not bind” and the “Hsp90 binding to peptide column” value (Hsp90) was “clearly bound”.

For “KKWKMRRNQFWVIWQRGHSFCALKS-CONH2 ([dK][dK][dW][dK][dM][dR][dR][dN][dQ][dF][dW][dV][dI][dW][dQ][dR]G[dH][dS][dF][dC][dA][dL][dK][dS]-NH2; also: retro-inverso) [P4, retro-inverso control scrambled peptide]”, the “cell viability (MTT)” value [2] was “no decrease in cell viability” and the “tumor cell viability (trypan blue exclusion)” value [3] was “did not reduce tumor cell viability”.
